# Measured values from patent US9975882B2, “Heteroaromatic compounds as BTK inhibitors” (Boehringer Ingelheim International GmbH, priority 2015, dated 2018).
# Read-outs that look alike come from different tables or passages of the source.
# Legend:
# [1] = target: human recombinant full length TEC (His-tagged) (Homo sapiens (Human), UniProt P42680); test: TEC Lanthscreen Eu Kinase Binding assay; conditions: 1 nM TEC
# [2] = target: human recombinant BTK (full length, His-tagged) (Homo sapiens (Human), UniProt Q06187); test: BTK Z'-LYTE assay; assay type: biochemical; conditions: 25 μM ATP;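 note: FRET readout of kinase phosphorylating a coumarin and fluorescein labelled synthetic peptide, detected via protease sensitivity of unphosphorylated versus phosphorylated substrate, incubated at 22 °C in 384-well plates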
# Description: Z′-LYTE™ Assay (Life Technologies):
# (§3) The Z′-Lyte assay employs a FRET-based, coupled-enzyme format and is based on the differential sensitivity of phosphorylated and non-phosphorylated peptides to proteolytic Cleavage. The activity of human recombinant BTK (full length, His-tagged), BMX (full length, His-tagged) or Txk (full length, GST-tagged) is estimated by measuring the phosphorylation of a synthetic FRET peptide substrate labeled with Coumarin and Fluorescein. […] Incubations are carried out at 22° C. in black polypropylene 384-well plates (Corning).
# (§4) Representative compounds of the present invention are assessed for inhibition of BTK, BMX, and TXK measuring phosphorylation of a substrate (Z′-LYTE™ assay, Life Technologies) and TEC measuring displacement of a “tracer” (Lanthscreen® Eu Kinase Binding assay, Life Technologies).
# [3] = tested on: BTK (IL-6 production in primary CD19+ B cells); test: Inhibition of IL-6 production in B cells co-stimulated with ODN 2006 and anti-hIgD; assay type: cell-based; conditions: B-cell, anti-human IgD + ODN 2006
# Description: Inhibition of IL-6 Production in B Cells Co-Stimulated with ODN 2006 and anti-hIgD
# Primary CD19+ B cells (AllCells #PB010F) are thawed and plated in RPMI containing 10% HI FBS in a 384-well tissue cultured plate at 20,000 cells/well. The cells are treated with test compound (0.5% DMSO final concentration) and incubated for 1 hour at 37° C., 5% CO2. Cells are then stimulated with 5 ug/mL Goat F(ab′)2 anti-human IgD (SouthernBiotech #2032) and 2 uM ODN 2006 (InvivoGen #tlrl-2006) and incubated for 18-24 hours at 37° C., 5% CO2. IL-6 in the supernatant is measured using Meso Scale Discovery kit #K211AKB-6.
# (§1) Representative compounds of the present invention are tested and show BTK inhibition (Table I). […] Additionally, compounds of the present invention, as represented by examples in Table II, are selective for BTK inhibition over other related kinases. […] In this table the BTK activity is measured by IL-6 production in primary CD19^+ B cells, and the EGFR activity is measured by EGFR phosphorylation in A431 cells.
# [4] = target: human recombinant Txk (full length, GST-tagged) (Homo sapiens (Human), UniProt P42681); test: TXK Z'-LYTE assay; conditions: read-out: TXK IC50, 100 μM ATP;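 note: FRET read-out of kinase phosphorylation of a synthetic peptide labelled with Coumarin and Fluorescein, scored by protease sensitivity of unphosphorylated peptide, incubated at 22 °C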
# Description: Z′-LYTE™ Assay (Life Technologies):
# as §3, §4
# [5] = target: human full length His-tagged BTK (Homo sapiens (Human), UniProt Q06187); test: BTK Lanthscreen Eu Kinase Binding assay; conditions: 2 nM BTK
# Description: BTK Lanthscreen® Eu Kinase Binding Assay:
# A Lanthscreen® Eu Kinase Binding assay (Life Technologies) is performed to quantitate the ability of test compounds to bind to BTK. The assay is based on the binding and displacement of Alexa Fluor647-labeled Kinase Tracer #236 to the ATP-binding site of human full length His-tagged BTK (Life Technologies cat #PV3587) with TR-FRET detection using a europium-labeled anti-His antibody. The assay is assembled in 384-well low volume NBS black plates (Corning) where 2 nM BTK and test compound in DMSO at varying concentrations are pre-incubated for 30 min at 28° C. in assay buffer consisting of 50 mM HEPES, pH 7.4, 10 mM MgCl2, 1 mM EGTA. 100 μM Na3VO4 and 0.01% Brij 35. Then, 2 nM of Eu-anti His antibody and 30 nM Kinase Tracer are added and incubated for 60 min at 28° C. Following incubation, TR-FRET signal is read on an Envision plate reader (Excitation: 340 nm; Emissions: 615 and 665 nm). The 665:615 nm emission ratio is calculated and converted to POC compared to control and blank wells.
# [6] = tested on: mean arterial pressure (MAP); conditions: rat, in vivo, po
# Description: In-Vivo Assay—Comparison Between the Compounds of the Present Invention and Comparative Compounds A, B and C
# In a side-by-side in-vivo study, select compounds of the present invention and comparative compounds A-C are evaluated in telemetry-instrumented conscious rats to determine their effects on mean arterial pressure (MAP) at doses at or above therapeutically relevant concentrations.
# (§2) All animals (telemetry-instrumented) are single housed in metabolic cages. Rats are acclimated to the metabolic cage for at least 3 days and then dosed with vehicle for up to 4 days. Blood pressure, heart rate, and bodyweight are collected during the baseline period and animals are randomized into 3 groups based on these parameters (n=8-9/group). Treatment groups are: vehicle and test compound (10 mg/kg po and 30 mg/kg po qd); animals are treated with compound for 5 days. […] Mean arterial pressure (MAP) and heart rate (HR) are collected continuously throughout the study. Statistical analyses is performed using GraphPad Prism based on the average 24-hr mean value during five days of compound administration (one-way ANOVA with Dunnett's post-test vs. Vehicle; p<0.05 is considered statistically significant).
# [7] = target: EGFR (EGFR phosphorylation in A431 cells) (Homo sapiens (Human), UniProt P00533); test: Inhibition of EGFR autophosphorylation in A431 human epithelial cells stimulated with EGF; assay type: cell-based; conditions: EGF 60 ng/mL, read-out: A431 p-EGFR IC50
# Description: Inhibition of EGFR Autophosphorylation in A431 Human Epithelial Cells Stimulated with Epithelial Growth Factor
# A431 cells (ATCC #CRL-1555 FZ) are thawed and plated in DMEM containing 10% FBS in a 384-well tissue culture treated plate at 15,000 cells/well. After incubating for 24 hours at 37° C., 5% CO2, the cells are treated with test compound (1% DMSO final concentration) and incubated for 16 hours at 37° C., 5% CO2. EGF (Millipore, 01-107) is added at a final concentration of 60 ng/mL and incubated for 10 minutes. The medium is removed, the cells are lysed, and phospho EGFR is measured (Meso Scale Diagnostics, N31CB-1).
# as §1
# [8] = Plasma compound exposure in rats (tail bleed, day 6); assay type: in vivo; conditions: plasma, rat
# Description: as §2
# Chain of human recombinant Txk (full length, GST-tagged) (P42681 whole entry): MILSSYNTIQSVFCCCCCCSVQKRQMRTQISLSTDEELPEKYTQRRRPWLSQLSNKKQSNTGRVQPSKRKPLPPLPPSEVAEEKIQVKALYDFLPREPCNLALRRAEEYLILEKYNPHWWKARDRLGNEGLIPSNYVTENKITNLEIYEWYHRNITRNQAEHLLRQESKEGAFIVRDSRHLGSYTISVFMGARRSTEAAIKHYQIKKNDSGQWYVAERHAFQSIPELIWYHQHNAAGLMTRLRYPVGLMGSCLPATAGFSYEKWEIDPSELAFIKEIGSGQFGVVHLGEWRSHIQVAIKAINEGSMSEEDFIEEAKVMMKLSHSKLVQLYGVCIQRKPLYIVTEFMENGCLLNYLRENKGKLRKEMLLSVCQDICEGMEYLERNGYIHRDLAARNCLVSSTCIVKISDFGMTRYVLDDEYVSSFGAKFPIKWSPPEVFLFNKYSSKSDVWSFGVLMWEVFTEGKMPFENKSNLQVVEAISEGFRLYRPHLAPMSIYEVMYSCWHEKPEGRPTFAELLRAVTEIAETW
# Chain of human recombinant full length TEC (His-tagged) (P42680 whole entry): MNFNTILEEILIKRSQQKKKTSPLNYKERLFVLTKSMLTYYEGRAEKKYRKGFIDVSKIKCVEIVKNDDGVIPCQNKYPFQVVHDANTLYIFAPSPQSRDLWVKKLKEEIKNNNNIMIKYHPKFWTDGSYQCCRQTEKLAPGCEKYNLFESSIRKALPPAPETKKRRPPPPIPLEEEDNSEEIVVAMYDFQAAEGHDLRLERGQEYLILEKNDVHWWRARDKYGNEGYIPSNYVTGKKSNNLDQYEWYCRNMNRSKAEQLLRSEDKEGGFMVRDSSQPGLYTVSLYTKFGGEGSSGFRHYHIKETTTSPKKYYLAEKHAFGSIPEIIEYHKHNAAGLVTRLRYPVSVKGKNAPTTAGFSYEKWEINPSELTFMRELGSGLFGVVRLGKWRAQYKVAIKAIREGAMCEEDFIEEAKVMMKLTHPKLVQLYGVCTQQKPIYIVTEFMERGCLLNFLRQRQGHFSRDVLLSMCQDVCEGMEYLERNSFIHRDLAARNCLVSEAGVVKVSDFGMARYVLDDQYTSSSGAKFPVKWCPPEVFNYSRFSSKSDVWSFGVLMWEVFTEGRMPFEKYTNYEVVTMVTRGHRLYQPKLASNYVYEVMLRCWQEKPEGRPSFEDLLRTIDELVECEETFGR
# Chain of human recombinant BTK (full length, His-tagged) (Q06187 whole entry): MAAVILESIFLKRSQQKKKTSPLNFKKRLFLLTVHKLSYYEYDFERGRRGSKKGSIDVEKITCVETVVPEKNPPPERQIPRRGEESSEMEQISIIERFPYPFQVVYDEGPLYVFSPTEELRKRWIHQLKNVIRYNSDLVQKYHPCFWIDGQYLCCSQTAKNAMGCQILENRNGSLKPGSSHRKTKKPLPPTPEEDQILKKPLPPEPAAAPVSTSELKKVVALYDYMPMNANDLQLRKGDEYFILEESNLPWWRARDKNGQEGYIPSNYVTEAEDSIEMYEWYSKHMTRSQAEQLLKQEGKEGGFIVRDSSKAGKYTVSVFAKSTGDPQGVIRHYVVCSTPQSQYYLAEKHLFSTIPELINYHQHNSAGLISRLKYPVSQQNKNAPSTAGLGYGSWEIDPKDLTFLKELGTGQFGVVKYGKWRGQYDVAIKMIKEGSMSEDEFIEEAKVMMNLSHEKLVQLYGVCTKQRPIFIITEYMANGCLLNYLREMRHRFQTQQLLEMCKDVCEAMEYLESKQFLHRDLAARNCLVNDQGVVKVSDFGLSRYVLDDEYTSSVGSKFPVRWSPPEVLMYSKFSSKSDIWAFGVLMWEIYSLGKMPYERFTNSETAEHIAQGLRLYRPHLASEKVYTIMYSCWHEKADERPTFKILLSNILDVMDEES
# Chain of human full length His-tagged BTK (Q06187 whole entry): as above
# Chain of EGFR (EGFR phosphorylation in A431 cells) (P00533 25-1210): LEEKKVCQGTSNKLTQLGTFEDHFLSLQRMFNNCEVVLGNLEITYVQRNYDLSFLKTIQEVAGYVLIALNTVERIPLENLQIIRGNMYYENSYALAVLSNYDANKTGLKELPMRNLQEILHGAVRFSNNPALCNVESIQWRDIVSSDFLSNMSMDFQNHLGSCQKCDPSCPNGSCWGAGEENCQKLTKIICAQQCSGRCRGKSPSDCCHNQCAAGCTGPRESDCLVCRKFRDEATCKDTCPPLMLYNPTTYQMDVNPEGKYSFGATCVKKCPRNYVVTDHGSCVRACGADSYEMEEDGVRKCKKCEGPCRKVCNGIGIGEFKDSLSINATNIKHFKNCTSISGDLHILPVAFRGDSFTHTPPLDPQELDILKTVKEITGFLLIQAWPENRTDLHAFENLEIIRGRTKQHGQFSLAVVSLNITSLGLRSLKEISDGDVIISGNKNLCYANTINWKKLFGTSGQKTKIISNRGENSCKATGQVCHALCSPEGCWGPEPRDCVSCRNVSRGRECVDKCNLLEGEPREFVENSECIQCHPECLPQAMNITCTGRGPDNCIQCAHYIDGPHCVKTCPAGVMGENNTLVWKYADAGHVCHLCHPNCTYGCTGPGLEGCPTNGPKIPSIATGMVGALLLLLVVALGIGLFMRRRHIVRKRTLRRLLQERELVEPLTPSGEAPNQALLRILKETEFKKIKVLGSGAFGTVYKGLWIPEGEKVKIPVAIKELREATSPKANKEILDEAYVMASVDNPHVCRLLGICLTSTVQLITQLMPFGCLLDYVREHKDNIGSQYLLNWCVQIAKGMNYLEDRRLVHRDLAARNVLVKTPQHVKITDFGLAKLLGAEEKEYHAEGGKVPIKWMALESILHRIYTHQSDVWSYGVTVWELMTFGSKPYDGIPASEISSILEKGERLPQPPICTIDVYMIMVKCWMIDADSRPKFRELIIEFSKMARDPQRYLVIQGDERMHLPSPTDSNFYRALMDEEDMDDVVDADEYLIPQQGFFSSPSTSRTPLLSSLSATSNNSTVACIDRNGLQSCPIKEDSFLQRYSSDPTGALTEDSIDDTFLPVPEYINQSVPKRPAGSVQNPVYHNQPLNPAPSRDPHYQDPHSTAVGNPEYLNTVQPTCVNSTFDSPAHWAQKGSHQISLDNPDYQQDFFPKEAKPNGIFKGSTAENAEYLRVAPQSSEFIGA
IC50 [1] [nM],IC50 [2] [nM],IC50 [3] [nM],IC50 [4] [nM],IC50 [5] [nM],5-Day 24-h MAP Change versus Control ([6]; 10 mg/kg),5-Day 24-h MAP Change versus Control ([6]; 30 mg/kg),IC50 [7] [nM],Cmax ([8]; 10 mg/kg po qd) [nM],Cmax ([8]; 30 mg/kg po qd) [nM],Structure (SMILES)
92,1.7,0.5,130,0.5,No statistically significant,No statistically significant,> 10000,111 ± 37,344 ± 106,CC#CC(=O)N1CC[C@]2(C1)C[C@H](n1nc(-c3cnn(Cc4ccccc4C(F)(F)F)c3)c(C(N)=O)c1N)C2 [Example 12]
21,0.7,0.8,46,0.3,No statistically significant,No statistically significant,> 10000,170 ± 29,720 ± 262,CC#CC(=O)N1CC[C@]2(C1)C[C@H](n1nc(-c3cnn(Cc4cccc(C(F)(F)F)c4)c3)c(C(N)=O)c1N)C2 [Example 22]
